Source: US20070248996A1, “Modulators of beta-amyloid peptide aggregation comprising D-amino acids” (Paraecis Pharmaceuticals, Inc., priority 1995, published 2007)
Read-outs that look alike come from different tables or passages of the source. Square brackets hold non-standard residues; d marks the D form. Peptide text beside a SMILES is read from it. * marks the point of attachment. Quinoline4carbonyl = O=C(c1ccnc2ccccc12)*; Acetyl(3-pyridyl) = O=C(Cc1cccnc1)*; Acetyl(4-pyridyl) = O=C(Cc1ccncc1)*; Benzoyl(4-OH) = O=C(c1ccc(O)cc1)*; d3Pal = N[C@H](Cc1cccnc1)C(=O)O; Isonicotinoyl = O=C(c1ccncc1)*; X1 = O=C(c1cc2cc(O)ccc2cc1O)*

Molecular target: Aβ1-40 (Homo sapiens, UniProt P05067)
Sequence (P05067 672-711): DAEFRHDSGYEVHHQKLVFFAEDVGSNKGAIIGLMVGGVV
Type: biochemical
Design: ΔLag: unit not given here
Settings: for ΔLag: Table XI; for ΔLag 2 μM: 2 μM test compound; for ΔLag 3 μM: 3 μM test compound; for ΔLag 4 μM: 4 μM test compound; for ΔLag 0.5 μM / ΔLag 5.0 μM / ΔLag […]: Table VI; for ΔLag 5.0 μM: 5.0 μM test compound; for ΔLag […]: […] test compound
Excerpt: The nucleation assay is employed to determine the ability of test compounds to alter (e.g. inhibit) the early events in formation of β-AP fibers from monomeric β-AP. Characteristic of a nucleated polymerization mechanism, a lag time is observed prior to nucleation, after which the peptide rapidly forms fibers as reflected in a linear rise in turbidity. The time delay before polymerization of β-AP monomer can be quantified as well as the extent of formation of insoluble fiber by light scattering (turbidity). Polymerization reaches equilibrium when the maximum turbidity reaches a plateau The turbidity of a solution of natural β-AP in the absence or presence of various concentrations of a β-amyloid modulator compound is determined by measuring the apparent absorbance of the solution at 405 nm (A405 nm) over time. The threshold of sensitivity for the measurement of turbidity is in the range of 15-20 μM β-AP. […] This assay can be performed using stirring or shaking to accelerate polymerization, thereby increasing the speed of the assay. Moreover the assay can be adapted to a 96-well plate format to screen multiple compounds.
HFIP-solubilized peptide is sonicated in a waterbath sonicator for 5 min at highest setting, then evaporated to dryness under a stream of argon. The peptide film is resuspended in anhydrous dimethylsulfoxide (DMSO) at a concentration of 6.9 mg/ml (25× concentration), sonicated for 5 min as before, then filtered through a 0.2 micron nylon syringe filter (VWR cat. No.28196-050). Test compounds are dissolved in DMSO at a 100× concentration. […] Ten microliters of the mixture is then added to the bottom of a well of a Corning Costar ultra low binding 96-well plate (Coming Costar, Cambridge Mass.; cat. No. 2500). Ninety microliters of water is added to the well, the plate is shaken on a rotary shaken at a constant speed at room temperature for 30 seconds, an additional 100 μl of 2× PTL buffer (20 mM NaH2PO4, 300 mM NaCl, pH 7.4) is added to the well, the plate is reshaken for 30 seconds and a baseline (t=0) turbidity reading is taken by measuring the apparent absorbance at 405 nm using a Bio-Rad Model 450 Microplate Reader. The plate is then returned to the shaker and shaken continuously for 5 hours. Turbidity readings are taken at 15 minute intervals.
β-amyloid aggregation in the absence of any modulators results in enhanced turbidity of the natural β-AP solution (i.e., an increase in the apparent absorbance at 405 nm over time). […]

[1] = Table V, hydroxylated and oxygenated modifying groups, 5 μM test compound
[2] = Table IV, hydrophobic modifying groups, 5 μM test compound
[3] = Table III, modifying groups derived from bile acids, 5 μM test compound
[4] = Table II, second series, different stock of Aβ1-40
[5] = Table II, second series, different stock of Aβ1-40, 5 μM test compound

3,4-Dihydroxycinnamoyl-d(LFFVL)-nh2 [PPI-593]
ΔLag 5 μM (Table IX, 5 μM test compound): 2.0

3,5-Dihydroxy-2-naphthoyl-d(LVFFA)-nh2 [PPI-523]
ΔLag 5 μM [1]: 3.8 | ΔLag 5 μM (Table VIII, 5 μM test compound): 2.1

CC(C)C[C@@H](NC(=O)[C@H](NC(=O)[C@@H](Cc1ccccc1)NC(=O)[C@@H](Cc1ccccc1)NC(=O)[C@@H](C)NC(=O)Cc1cccnc1)C(C)C)C(N)=O [PPI-730, 3-Pyridylacetyl-d(AFFVL)-nh2] ({Acetyl(3-pyridyl)}-[dA][dF][dF][dV][dL]-NH2)
ΔLag (5 μM test compound): 2

D-3-Phenyllactyl-d(FFVL)-nh2 [PPI-612]
ΔLag 5 μM (Table IX, 5 μM test compound): 2.1

Acetyl-d(VF)-PEA [PPI-495]
ΔLag 5 μM [2]: 1.0

3,7-Dihydroxy-2-naphthoyl-d(LFFVL)-nh2 [PPI-648]
ΔLag 5 μM (Table IX, 5 μM test compound): 3.1

4-Hydroxybenzoyl-d(AFFVL)-nh2 [PPI-629]
ΔLag 5 μM (Table IX, 5 μM test compound): 2.9

Isobutanoyl-d(LVFFA)-nh2 [PPI-526]
ΔLag 5 μM [2]: 1.8

Ac-d(LFFFL)-nh2 [PPI-644]
ΔLag 5 μM (Table IX, 5 μM test compound): 2.1

Ursodeoxycholyl-LVFFA-oh [PPI-522]
ΔLag 5 μM [3]: >2.3 | ΔLag 5 μM (Table IX, 5 μM test compound): 1.2

3,5-Dihydroxy-2-naphthoyl-d(AFFVL)-nh2 [PPI-568]
ΔLag 5 μM (Table IX, 5 μM test compound): >6

CC(C)C[C@@H](NC(=O)[C@H](NC(=O)[C@@H](Cc1ccccc1)NC(=O)[C@@H](Cc1ccccc1)NC(=O)[C@@H](Cc1cccnc1)NC(=O)c1cc2cc(O)ccc2cc1O)C(C)C)C(N)=O [PPI-664, 3,7-Dihidroxy-2-naphthol-d(Pal-FFVL)-nh2] (X1-[d3Pal][dF][dF][dV][dL]-NH2)
ΔLag (0.5 μM test compound): 0 | ΔLag (5 μM test compound): 2

CA-d(LVYFA)-oh [PPI-455]
ΔLag 2 μM [4]: 1.8 | ΔLag 3 μM [4]: 2.0 | ΔLag 4 μM [4]: 2.3 | ΔLag 5 μM [5]: >2.7

4-Hydroxycinnamoyl-d(LVFFA)-nh2 [PPI-537]
ΔLag 5 μM (Table IX, 5 μM test compound): 1.6 | ΔLag 5 μM [1]: 1.0

h-d(FFFLV)-nh2 [PPI-533]
ΔLag 0.5 μM (0.5 μM test compound): 1.5 | ΔLag 5.0 μM: >7.5 | ΔLag […]: 3.8 | ΔLag 5 μM (Table X, 5 μM test compound): >6

(±)-Mandelyl-(±)-mandelyl-d(LVFFA)-nh2 [PPI-518]
ΔLag 5 μM [1]: 1.5

CC(C)C[C@@H](NC(=O)[C@H](NC(=O)[C@@H](Cc1ccccc1)NC(=O)[C@@H](Cc1ccccc1)NC(=O)CN)C(C)C)C(N)=O [PPI-733, H-Glycyl-d(FFVL)-nh2] (H-G[dF][dF][dV][dL]-NH2)
ΔLag (5 μM test compound): 0

4-Hydroxycinnamoyl-d(AFFVL)-nh2 [PPI-587]
ΔLag 5 μM (Table IX, 5 μM test compound): 3.7

4-Hydroxyphenylacetyl-d(LFFVL)-nh2 [PPI-649]
ΔLag 5 μM (Table IX, 5 μM test compound): 5.1

3-Hydroxyphenylacetyl-d(LVFF)-nh2 [PPI-483]
ΔLag 5 μM (Table IX, 5 μM test compound): 2.9 | ΔLag 5 μM [1]: 2.2

h-d(AFFLL)-nh2 [PPI-577]
ΔLag 0.5 μM (0.5 μM test compound): 1.0 | ΔLag 5.0 μM: >7.5 | ΔLag […]: 1.3 | ΔLag 5 μM (Table X, 5 μM test compound): >6

h-d(LFFVL)-nh2 [PPI-578]
ΔLag 0.5 μM (0.5 μM test compound): 2.5 | ΔLag 5.0 μM: >7.5 | ΔLag […]: 4.8 | ΔLag 5 μM (Table X, 5 μM test compound): 3.2

2,4-Dihydroxybenzoyl-d(LVFF)-nh2 [PPI-486]
ΔLag 5 μM [1]: 1.2

Hyodeoxycholyl-LVFFA-oh [PPI-520]
ΔLag 5 μM [3]: >2.3 | ΔLag 5 μM (Table IX, 5 μM test compound): 1.5

h-d(LVYFA)-nh2 [PPI-503]
ΔLag 5.0 μM: 1.2

Glycolyl-d(LVFFA)-nh2 [PPI-535]
ΔLag 5 μM (Table IX, 5 μM test compound): 1.3 | ΔLag 5 μM [1]: 1.4

5-Hydantoinacetyl-d(LVFFA)-nh2 [PPI-539]
ΔLag 5 μM (Table IX, 5 μM test compound): 2.4

CC(C)C[C@@H](NC(=O)[C@H](NC(=O)[C@@H](Cc1ccccc1)NC(=O)[C@@H](Cc1ccccc1)NC(=O)[C@@H](C)NC(=O)c1ccnc2ccccc12)C(C)C)C(N)=O [PPI-746, 4-Quinolinecarboxyl-d(AFFVL)-nh2] (Quinoline4carbonyl-[dA][dF][dF][dV][dL]-NH2)
ΔLag (5 μM test compound): 2

Lithocholyl-LVFFA-oh [PPI-425]
ΔLag 5 μM [3]: 1.4

1-Adamantanecarbonyl-d(LVFF)-nh2 [PPI-492]
ΔLag 5 μM [2]: 1.1

4-Hydroxyphenylacetyl-d(LVFFA)-nh2 [PPI-559]
ΔLag 5 μM (Table VIII, 5 μM test compound): 3.5

h-d(LVFA)-oh [PPI-479]
ΔLag 2 μM [4]: 1.1 | ΔLag 3 μM [4]: 0.9 | ΔLag 4 μM [4]: 1.0 | ΔLag 5 μM [5]: 1.1

Glycolyl-d(FFFVL)-nh2 [PPI-596]
ΔLag 5 μM (Table IX, 5 μM test compound): 3.6 | ΔLag 5 μM [1]: 3.6

Phenylacetyl-d(LVFF)-nh2 [PPI-480]
ΔLag 5 μM [2]: 1.0

3,4-Dihydroxycinnamoyl-d(AFFVL)-nh2 [PPI-569]
ΔLag 5 μM (Table IX, 5 μM test compound): 2.6

h-d(AAAAA)-nh2 [PPI-473]
ΔLag 3 μM [4]: 1.0 | ΔLag 4 μM [4]: 1.0 | ΔLag 5 μM [5]: 1.0

CA-d(LVF(IY)A)-oh [PPI-463]
ΔLag 2 μM [4]: >2.7 | ΔLag 3 μM [4]: >2.7 | ΔLag 4 μM [4]: >2.7 | ΔLag 5 μM [5]: >2.7

3,5-Dihydroxy-2-naphthoyl-d(LVFF)-nh2 [PPI-487]
ΔLag 5 μM [1]: 2.2

Acetyl-d(LV(IodoY)FA)-nh2 [PPI-506]
ΔLag 5.0 μM: 1.0

cholyl-D-Leu-D-Val-D-Phe-phenethylamide [PPI-494]
ΔLag 2 μM [4]: 1.0 | ΔLag 3 μM [4]: 1.3 | ΔLag 4 μM [4]: 1.4 | ΔLag 5 μM [5]: 1.4 | ΔLag 5 μM [2]: 1.5 | ΔLag 5 μM (Table IX, 5 μM test compound): 1.3

h-d(FFFFL)-nh2 [PPI-589]
ΔLag 0.5 μM (0.5 μM test compound): 1.5 | ΔLag 5.0 μM: >7.5 | ΔLag […]: 3.3 | ΔLag 5 μM (Table X, 5 μM test compound): >6

3,7-Dihydroxy-2-naphthoyl-d(LVFFA)-nh2 [PPI-548]
ΔLag 5 μM (Table VIII, 5 μM test compound): 2.5

h-d(VFF)-oh [PPI-502]
ΔLag 5 μM [2]: 1.0

2-Hydroxycinnamoyl-d(LVFFA)-nh2 [PPI-536]
ΔLag 5 μM (Table IX, 5 μM test compound): 1.4

h-d(VF)-PEA [PPI-497]
ΔLag 5 μM [2]: 1.0

CC(C)C[C@@H](NC(=O)[C@H](NC(=O)[C@@H](Cc1ccccc1)NC(=O)[C@@H](Cc1ccccc1)NC(=O)[C@@H](C)NC(=O)Cc1ccncc1)C(C)C)C(N)=O [PPI-741, 4-Pyridylacetyl-d(AFFVL)-nh2] ({Acetyl(4-pyridyl)}-[dA][dF][dF][dV][dL]-NH2)
ΔLag (2.5 μM test compound): 2.0

CC(C)C[C@@H](NC(=O)c1ccc(O)cc1)C(=O)N[C@@H](C(=O)N[C@H](Cc1ccc(O)cc1)C(=O)N[C@H](Cc1ccc(O)cc1)C(=O)N[C@H](C)C(N)=O)C(C)C [PPI-775, 4-Hydroxybenzoyl-d(LVYYA)-nh2] ({Benzoyl(4-OH)}-[dL][dV][dY][dY][dA]-NH2)
ΔLag (5 μM test compound): 1

h-d(LV(IodoY)FA)-nh2 [PPI-504]
ΔLag 5.0 μM: 2.2 | ΔLag 5 μM (Table X, 5 μM test compound): 1.4

3-(4-Hydroxyphenyl)propionyl-d(FFVL)-nh2 [PPI-616]
ΔLag 5 μM (Table IX, 5 μM test compound): 1.5

CC(C)C[C@@H](NC(=O)[C@H](NC(=O)[C@@H](Cc1ccccc1)NC(=O)[C@@H](Cc1ccccc1)NC(=O)[C@@H](C)NC(=O)c1ccncc1)C(C)C)C(N)=O [PPI-732, Isonicotinoyl-d(AFFVL)-nh2] (Isonicotinoyl-[dA][dF][dF][dV][dL]-NH2)
ΔLag (5 μM test compound): <2
